# Test results: paper PMC6081452, “Downstream Products are Potent Inhibitors of the Heparan Sulfate 2-O-Sulfotransferase” (Scientific Reports, 2018)
# Entries after “also recorded” stand apart in the source; their conditions may differ.
# Key:
# [1] = target: T1, non-glyc-HS2ST (non-glycosylated chicken HS2ST), WT (Gallus gallus, UniProt Q76KB1); assay: BLI equilibrium binding, non-glyc-HS2ST WT; details: BLI saturation binding curves, biotin-PEG4-linked hexasaccharide on sensor, n = 3, ± standard error of fit; — = response too weak to fit
# T1 construct: made in house; host or cells: E. coli Origami B (DE3)
# T1 sequence (Q76KB1 69-356 limits assumed): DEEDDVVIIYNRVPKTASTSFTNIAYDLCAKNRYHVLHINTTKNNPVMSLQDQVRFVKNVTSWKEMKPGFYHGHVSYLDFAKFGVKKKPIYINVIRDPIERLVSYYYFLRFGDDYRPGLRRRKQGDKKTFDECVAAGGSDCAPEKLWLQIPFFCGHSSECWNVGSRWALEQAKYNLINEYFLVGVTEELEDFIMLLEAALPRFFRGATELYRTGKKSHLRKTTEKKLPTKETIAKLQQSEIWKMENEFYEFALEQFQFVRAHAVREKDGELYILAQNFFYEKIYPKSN
# Text: (§1) HS-protein binding studies often utilize biologically-derived oligosaccharides of heterogeneous length and sulfation[34],[35]; however, the synthesis of oligosaccharides with defined length and specific sulfation patterns has recently become possible. We employed biolayer interferometry (BLI) to determine equilibrium surface binding constants (KD) for HS2ST with synthetic HS hexasaccharides (Fig. 1 and Supplementary Table 1). The HS compounds were attached to the BLI biosensor surface to conserve sample and to ensure a significant signal upon protein binding. The HS compounds contained a biotinylated PEG4 linker at the reducing terminus, enhancing the likelihood of a consistent presentation of the linear glycan on the sensor surface, in contrast to immobilizations via intra-chain modifications.
# Binding constants were collected for two isoforms of the enzyme; a glycosylated human variant (glyc-HS2ST) expressed in mammalian cell lines, and a highly homologous (96% identity) non-glycosylated chicken isoform expressed in E. coli (non-glyc-HS2ST). […] Thus, the enhanced ligand affinity seen in HS2ST was unexpected and may relate to the specific position of the glycosylation site (N108)[41].
# The chicken HS2ST-Maltose Binding Protein (MBP) fusion protein was expressed and purified according to previous studies. The fusion protein was transformed into E. coli Origami B (DE3) cells, cultured at 37 °C until OD600 reached 0.5, then induced with isopropyl-β-D-thiogalactopyranoside and allowed to grow overnight at 20 °C. Cells were sonicated, followed by a two-step purification procedure. Whole-cell supernatant was passed through an amylose column with Tris buffer (25 mM Tris, 500 mM NaCl, pH 7.5). An elution buffer consisted of Tris Buffer with 40 mM Maltose. The amylose column eluent was concentrated and loaded on a Superdex 200 Increase 10/300 GL with PBS buffer (10 mM sodium phosphate, 150 mM NaCl, pH 7.8) to separate trimeric protein from aggregate and independent MBP (Supplementary Fig. 4). All reported mutations formed homotrimeric complexes according to the SEC profiles, including the negative control (NC = R189A/R80E/R184E). Protein concentration was assessed via UV at 280 nm (MW of trimer ~210 KDa, extinction coefficient ~119,000 M^−1 cm^−1 according to ExPASy ProtParam webtool[56]). The trimeric protein preparation was adjusted to 5% glycerol and stored at −20 °C until use. Additional non-glyc-HS2ST constructs were created with the Q5® Mutagenesis kit (New England Biolabs Inc.; cat. # E0554S) and sequenced at the Georgia Genomics Facility at the University of Georgia.
# The Octet® RED96 system (FortéBio Inc.) was employed to detect the affinity of the enzymes for specific HS targets. Due to the small size of the glycan and the deep HS2ST binding cavity, the glycan and protein were treated as ligand and analyte, respectively. Varyingly sulfated HS fragments conjugated to biotin linkers were purchased from Glycan Therapeutics Inc. with purities greater than 93% according to HPLC (sequences located in Supplementary Table 1). The glycans were immobilized onto streptavidin (SA) labeled biosensors (FortéBio; cat. #18–5019) at 0.5 µg/mL. Experiments were performed at 25 °C in PBS Buffer (10 mM sodium phosphate, 150 mM NaCl, pH 7.8) with a final concentration of 1X Pall Kinetics buffer (FortéBio Inc; cat. #18–1092). Fresh biosensors and protein samples were used for each measurement (no regeneration step). […]
# [2] = target: T2, glyc-HS2ST (glycosylated human HS2ST), WT (Homo sapiens, UniProt Q7LGA3); assay: BLI equilibrium binding, glyc-HS2ST WT; details: BLI saturation binding curves, biotin-PEG4-linked hexasaccharide immobilised on sensor, n = 3, ± standard error of fit, 25 °C, PBS pH 7.8
# T2 construct: the human HS2ST catalytic domain region comprising of 328 amino acid residues; His8 (N, cleaved yes); AviTag (N, cleaved yes); superfolder GFP (N, cleaved yes); made in house; host or cells: HEK293-F (transient transfection, secreted)
# T2 sequence (Q7LGA3 29-356 limits assumed): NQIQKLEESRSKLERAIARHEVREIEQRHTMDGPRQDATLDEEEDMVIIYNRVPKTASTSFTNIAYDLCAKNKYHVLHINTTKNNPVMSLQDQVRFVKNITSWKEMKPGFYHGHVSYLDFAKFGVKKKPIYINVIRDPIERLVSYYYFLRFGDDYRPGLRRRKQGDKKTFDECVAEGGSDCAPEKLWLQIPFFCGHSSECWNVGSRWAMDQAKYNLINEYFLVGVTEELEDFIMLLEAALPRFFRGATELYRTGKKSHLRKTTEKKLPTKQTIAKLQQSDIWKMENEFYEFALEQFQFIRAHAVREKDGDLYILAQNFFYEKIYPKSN
# Text: as §1, with “modifications. […]” for “modifications.”
# An expression construct was generated encoding the truncated catalytic domain of human HS2ST as an NH2-terminal fusion protein in the pGEn2 expression vector essentially as described in prior studies. […] The recombinant human HS2ST was expressed as a soluble secreted protein by transient transfection of suspension culture HEK293-F cells (FreeStyle^TM 293-Fcells, Thermo Fisher Scientific, Waltham MA) maintained at 0.5–3.0 × 10^6 cells/ml in a humidified CO2 platform shaker incubator at 37 °C with 55% humidity. […]
substance,measurement,setting,value
GlcNS-GlcA-GlcNS-IdoA-GlcNS-GlcA~ [Compound 1],"Equilibrium KD, WT non-glyc-HS2ST",[1],too weak to measure; also recorded: insufficient for KD determination
same,"Equilibrium KD, WT glyc-HS2ST",[2],too weak to measure
